From publication PMC12344293, “A new class of binding-protein dependent solute transporter exemplified by the TAXI-GltS system from Bordetella pertussis” (Communications Biology, 2025)

Assays:
BP0403 [1] = target: T1, BP0403 (Bordetella pertussis, UniProt Q7VSK8); assay: intrinsic tyrosine fluorescence titration (n = […]); DSF shift on full-length protein and SBP domain; assay type: binding
T1 construct: BP0403SBP (residues 208–503), isolated C-terminal SBP domain; full-length BP0403FL (without signal peptide) also shifted in DSF

BP0403 [2] = target: T2, BP0403 (Bordetella pertussis, UniProt Q7VSK8, Y219A); assay: intrinsic tyrosine fluorescence titration; assay type: binding
T2 sequence (Q7VSK8 208-503 Y219A): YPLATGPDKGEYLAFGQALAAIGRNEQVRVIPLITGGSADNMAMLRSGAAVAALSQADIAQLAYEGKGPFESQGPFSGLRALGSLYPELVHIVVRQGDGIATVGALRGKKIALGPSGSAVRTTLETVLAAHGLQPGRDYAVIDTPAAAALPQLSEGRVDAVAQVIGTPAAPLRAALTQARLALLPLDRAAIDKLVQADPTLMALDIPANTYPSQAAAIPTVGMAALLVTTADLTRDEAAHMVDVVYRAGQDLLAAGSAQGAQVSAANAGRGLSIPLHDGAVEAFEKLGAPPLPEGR

BP0403 [3] = target: T3, BP0403 (Bordetella pertussis, UniProt Q7VSK8, Q263A); assay: intrinsic tyrosine fluorescence titration; assay type: binding
T3 sequence (Q7VSK8 208-503 Q263A): T2 sequence (Q7VSK8 208-503 Y219A)

[4] = target: the molecule itself; assay: SEC; Superdex 200 Increase 10/300 GL, 0.5 ml/min, SEC buffer (50 mM Tris-HCl pH 8, 100 mM NaCl, 5% glycerol); IMAC eluate incubated 20 min at room temperature with 5 mM EDTA and 100 mM glycerol before loading; elution volume compared with a calibration curve of molecular weight standards

N[C@@H](CCC(=O)O)C(=O)O [L-glutamate]
Kd (BP0403 [1]): 0.18 ± 0.032 µM | Kd (BP0403 [2]): 31 ± 6 µM | Kd (BP0403 [3]): 45 ± 3 µM

B1: full-length BP0403 (BP0403FL) (natural protein, Bordetella pertussis, UniProt Q7VSK8 20-503, looked up)
chain: SRAPDTEILQRDVGQTLAATYGPDLFDIVALRRMGSATDSTAPPGQTRRVVYYDVVLGLKKDLTLGAWDQPGAAALVSLLGAGPRSISGVKSSGNAAGDQIVAHASAIYQRDAEQWVHVAPASFTATEAPSLDTGAPPPVTRQLLQTLEQITRSVPYSASSTAQHVVQQELERSVARINGRLARLQKGYPLATGPDKGEYLAFGQALAAIGRNEQVRVIPLITGGSADNMAMLRSGAAVAALSQADIAQLAYEGKGPFESQGPFSGLRALGSLYPELVHIVVRQGDGIATVGALRGKKIALGPSGSAVRTTLETVLAAHGLQPGRDYAVIDTPAAAALPQLSEGRVDAVAQVIGTPAAPLRAALTQARLALLPLDRAAIDKLVQADPTLMALDIPANTYPSQAAAIPTVGMAALLVTTADLTRDEAAHMVDVVYRAGQDLLAAGSAQGAQVSAANAGRGLSIPLHDGAVEAFEKLGAPPLPEGR
notes: Codon optimised synthetic gene; also called BP0403 wildtype; source: E. coli BL21 (DE3), pET151, purified (Ni-NTA, SEC)
stoichiometry N [4]: 2
